Series [1] has as its system Human peripheral blood mononuclear cells (PBMC). Format: cell-based.
The next series relates to human monocytes. It is filed as binding.
Series [2] relates to Human peripheral blood mononuclear cells (PBMC).

The substance staphylococcal enterotoxin A [SEA] returned an IL-1 activity in series [1] of 875±5 units/ml. Besides, the “inhibition of biotinylated SEA(121-149) binding to monocytes” value in the series with human monocytes is listed as “specifically inhibited”. In series [2], the “concentration at which native SEA is effective (TNFα induction)” value lay within 0.1 to 1 nM and the “cytotoxic activity neutralized by anti-TNFα antibody” value was 63%.

With toxic shock syndrome toxin one [TSST-1], in series [2], the TNFα production is on record as 99 units/ml, the “TNFα production by monocytes depleted of T cells” value is given as “approximately 25 units TNFα/ml”, the “cytotoxic activity neutralized by anti-TNFα antibody” value turned out to be 76% and the “induction of TNFα production (in words)” value was “induced significant TNFα production”.

For the origin of these results see patent US5859207A (priority 1996, dated 1999).
